From paper PMC10464555 (Journal of Enzyme Inhibition and Medicinal Chemistry, 2023) come the findings set out here.

For this test, the target named is T1, sEH enzyme (Homo sapiens, UniProt P34913).
T1 sequence (P34913 1-555): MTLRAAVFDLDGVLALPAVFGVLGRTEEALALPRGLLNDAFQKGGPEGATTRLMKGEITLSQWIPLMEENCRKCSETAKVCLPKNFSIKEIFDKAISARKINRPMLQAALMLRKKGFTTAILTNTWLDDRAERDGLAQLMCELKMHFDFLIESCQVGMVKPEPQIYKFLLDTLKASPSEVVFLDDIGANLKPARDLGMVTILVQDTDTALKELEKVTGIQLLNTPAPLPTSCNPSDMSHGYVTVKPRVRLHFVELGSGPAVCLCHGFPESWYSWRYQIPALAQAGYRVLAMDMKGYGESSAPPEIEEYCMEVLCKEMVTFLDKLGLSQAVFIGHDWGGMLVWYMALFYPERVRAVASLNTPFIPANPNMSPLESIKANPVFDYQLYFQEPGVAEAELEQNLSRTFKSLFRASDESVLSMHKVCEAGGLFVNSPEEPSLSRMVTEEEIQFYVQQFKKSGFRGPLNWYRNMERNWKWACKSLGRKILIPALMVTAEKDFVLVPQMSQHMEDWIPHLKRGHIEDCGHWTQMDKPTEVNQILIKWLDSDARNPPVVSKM
The experiment in a line: sEH enzyme kinetics. It is filed as biochemical. The settings on record: for Ki: Ki (μM), Dixon plots; for Inhibition type: Lineweaver–Burk plots.

As a reminder, the Ki is a measure of affinity in units of concentration, obtained from inhibition or displacement.

In the case of `O=C(CCCCCCCCc1ccc(O)cc1)c1c(O)cccc1O` [Compound 19, malabaricone B], the Ki is 20.9 µM and the Inhibition type result was “Competitive”.
The like results for `O=C(CCCCCCCCc1ccc(O)c(O)c1)c1c(O)cccc1O` [Compound 20, malabaricone C] were, in that order, 11.1 µM and “Competitive”.
